Legend:
Assay in all cases: relative viability (nuclei count vs DMSO), 5 days (fraction); higher = more cells survive
IU1-47 + Trametinib = compound: CC1=CC(=C(N1C2=CC=C(C=C2)Cl)C)C(=O)CN3CCCCC3 [IU1-47] + CC(=O)Nc1cccc(-n2c(=O)n(C3CC3)c(=O)c3c(Nc4ccc(I)cc4F)n(C)c(=O)c(C)c32)c1 [Trametinib] (partner 0.02 µM)
Method in brief: (§1)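 Lung cancer cell lines, seeded in 1536-well plates, were treated the following day by pin tool with a single drug or with five library-drug doses (not always all listed) in √10 steps on top of a fixed anchor-drug dose. Cells were fixed and nuclei stained in one step after 5 days, and nuclei were counted. Relative viability is the nuclei count for treated wells divided by that for vehicle wells, reported as medians of duplicate plates.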

IU1-47 + AZD7762 = compound: CC1=CC(=C(N1C2=CC=C(C=C2)Cl)C)C(=O)CN3CCCCC3 [IU1-47] + NC(=O)Nc1cc(-c2cccc(F)c2)sc1C(=O)N[C@H]1CCCNC1 [AZD7762] (partner 0.2 µM)
Method in brief: as §1

FG-4592 + Phenformin = compound: Cc1nc(C(=O)NCC(=O)O)c(O)c2ccc(Oc3ccccc3)cc12 [FG-4592] + N=C(N)NC(=N)NCCc1ccccc1 [Phenformin] (partner 250 µM)
Method in brief: as §1

IU1-47 + Pictilisib = compound: CC1=CC(=C(N1C2=CC=C(C=C2)Cl)C)C(=O)CN3CCCCC3 [IU1-47] + CS(=O)(=O)N1CCN(Cc2cc3nc(-c4cccc5[nH]ncc45)nc(N4CCOCC4)c3s2)CC1 [Pictilisib] (partner 1 µM)
Method in brief: as §1

| Cell Line | relative viability (IU1-47 + Trametinib; first compound 0.08 µM) | relative viability (IU1-47 + Trametinib; first compound 0.253 µM) | relative viability (IU1-47 + Trametinib; first compound 0.8 µM) | relative viability (IU1-47 + Trametinib; first compound 2.53 µM) | relative viability (IU1-47 + Trametinib; first compound 8 µM) | relative viability (IU1-47 + AZD7762; first compound 0.08 µM) | relative viability (IU1-47 + AZD7762; first compound 0.253 µM) | relative viability (IU1-47 + AZD7762; first compound 0.8 µM) | relative viability (IU1-47 + AZD7762; first compound 2.53 µM) | relative viability (IU1-47 + AZD7762; first compound 8 µM) | relative viability (FG-4592 + Phenformin; first compound 0.08 µM) | relative viability (FG-4592 + Phenformin; first compound 0.253 µM) | relative viability (FG-4592 + Phenformin; first compound 0.8 µM) | relative viability (FG-4592 + Phenformin; first compound 2.53 µM) | relative viability (FG-4592 + Phenformin; first compound 8 µM) | relative viability (IU1-47 + Pictilisib; first compound 0.08 µM) | relative viability (IU1-47 + Pictilisib; first compound 0.253 µM) | relative viability (IU1-47 + Pictilisib; first compound 0.8 µM) | relative viability (IU1-47 + Pictilisib; first compound 2.53 µM) | relative viability (IU1-47 + Pictilisib; first compound 8 µM) |
| --- | --- | --- | --- | --- | --- | --- | --- | --- | --- | --- | --- | --- | --- | --- | --- | --- | --- | --- | --- | --- |
| ChaGo-K-1 | 0.927 | 0.869 | 0.958 | 0.813 | 0.814 | 0.934 | 1.01 | 0.91 | 0.91 | 0.954 | 0.525 | 0.478 | 0.44 | 0.466 | 0.492 | 0.753 | 0.758 | 0.62 | 0.457 | 0.43 |
| LOU-NH91 | 0.904 | 0.845 | 0.844 | 0.795 | 0.749 | 0.824 | 0.775 | 0.826 | 0.815 | 0.765 | 0.673 | 0.647 | 0.551 | 0.677 | 0.677 | 0.502 | 0.529 | 0.429 | 0.512 | 0.51 |
| NCI-H2405 | 0.69 | 0.702 | 0.762 | 0.672 | 0.622 | 0.795 | 0.804 | 0.853 | 0.815 | 0.739 | 0.282 | – | 0.382 | 0.342 | 0.42 | 0.552 | 0.49 | 0.524 | – | 0.431 |
| LCLC-97TM1 | 0.201 | 0.188 | 0.198 | – | 0.179 | 0.31 | 0.286 | 0.294 | 0.0924 | 0.245 | 0.415 | 0.385 | 0.44 | 0.423 | 0.426 | 0.194 | 0.258 | 0.204 | – | 0.165 |
| NCI-H596 | 0.765 | – | 0.779 | 0.834 | 0.677 | 1.06 | – | 1.03 | 0.889 | 1.03 | 0.637 | 0.712 | 0.512 | 0.72 | 0.473 | 0.393 | 0.367 | 0.405 | 0.429 | 0.393 |
| NCI-H727 | 0.438 | 0.349 | 0.369 | 0.375 | 0.368 | 0.582 | 0.539 | 0.539 | 0.512 | 0.58 | 0.543 | 0.341 | 0.378 | 0.643 | 0.609 | 0.33 | – | 0.356 | 0.264 | 0.355 |
| H3255 | 0.636 | 0.643 | 0.7 | – | 0.587 | 1.19 | 1.01 | 1.08 | 0.877 | 0.893 | 0.359 | 0.345 | 0.361 | 0.33 | 0.323 | 0.542 | 0.431 | 0.488 | 0.537 | 0.522 |
| NCI-H1437 | 0.48 | 0.485 | 0.556 | 0.391 | 0.496 | 1.14 | 1.11 | 1.12 | 1.05 | 1.1 | 0.297 | 0.355 | 0.343 | 0.287 | 0.31 | 0.403 | 0.428 | 0.423 | 0.413 | 0.35 |
| LU99A | 0.499 | 0.355 | 0.606 | 0.617 | 0.543 | 0.404 | 0.412 | 0.401 | 0.33 | 0.292 | 0.839 | 0.774 | 0.706 | 0.82 | 0.921 | 0.35 | 0.337 | 0.275 | 0.312 | 0.298 |
| HCC-827 | 0.565 | 0.481 | 0.596 | 0.54 | 0.517 | 0.174 | 0.213 | 0.227 | 0.202 | 0.197 | 0.37 | 0.376 | 0.38 | 0.367 | 0.401 | 1.27 | 1.1 | 1.14 | 0.957 | 1.1 |
| LK-2 | 0.932 | 0.834 | 0.772 | 0.545 | 0.831 | 0.488 | 0.557 | 0.542 | 0.368 | 0.305 | 0.365 | 0.449 | – | 0.33 | 0.264 | 0.606 | 0.614 | 0.615 | 0.412 | 0.474 |
| HCC-366 | 0.402 | 0.431 | 0.394 | 0.423 | 0.323 | 0.281 | 0.357 | 0.355 | 0.267 | 0.236 | 0.554 | 0.608 | 0.626 | 0.615 | 0.599 | 0.215 | 0.115 | 0.149 | 0.137 | 0.145 |
| BEN | 1.21 | 1.1 | 1.23 | 0.896 | 1.15 | 0.677 | 0.638 | 0.761 | 0.535 | 0.739 | 0.234 | 0.231 | 0.268 | 0.288 | 0.306 | 0.644 | 0.566 | 0.583 | 0.41 | 0.594 |
| NCI-H23 | 0.5 | – | 0.305 | 0.35 | 0.38 | 0.229 | – | 0.227 | 0.18 | 0.243 | 0.794 | 0.789 | 0.844 | 0.767 | 0.76 | 0.43 | 0.492 | 0.44 | 0.543 | 0.435 |
| NCI-H1395 | 1.16 | 1.13 | 1.06 | 0.914 | 0.803 | 0.422 | 0.336 | 0.414 | 0.384 | 0.392 | 0.408 | 0.46 | 0.397 | 0.408 | 0.415 | 0.597 | 0.65 | 0.569 | – | 0.433 |
| 201T | 0.719 | 0.747 | 0.715 | 0.7 | 0.73 | 0.696 | 0.592 | 0.633 | 0.504 | 0.78 | 0.399 | 0.408 | 0.423 | 0.437 | 0.493 | 0.672 | 0.682 | 0.709 | – | 0.664 |
| NCI-H2170 | 0.991 | 0.913 | 1 | 0.9 | 0.638 | 1.04 | 1.05 | 0.985 | 0.76 | 0.976 | 0.381 | 0.359 | 0.494 | 0.43 | 0.503 | 0.309 | 0.308 | 0.287 | 0.305 | 0.331 |

Reference: the supplement of paper PMC10307832
